{"source": "patent US10293027B2", "about": "“Methods for treating metabolic disorders using FGF” (Salk Institute for Biological Studies, priority 2010, dated 2019)", "molecules": {"B1": {"name": "FGF10: other FGF protein tested for comparison with FGF-1 (protein, UniProt O15520 38-208, looked up)", "Fibroblast growth factor 10": "QALGQDMVSPEATNSSSSSFSSPSSAGRHVRSYNHLQGDVRWRKLFSFTKYFLKIEKNGKVSGTKKENCPYSILEITSVEIGVVAVKAINSNYYLAMNKKGKLYGSKEFNNDCKLKERIEENGYNTYASFNWQHNGRQMYVALNGKGAPRRGQKTRRKNTSAHFLPMVVHS"}}, "key": {"ob/ob mice": {"system": "ob/ob mice", "assay": "Single s.c. injection of human FGF1 or other FGFs, blood glucose in ob/ob mice (Examples 13, 14)", "type": "in vivo, mouse", "conditions": "0.5 mg/kg s.c.", "description": "FIG. 26. Human recombinant FGF-1 is effective in mice.\nFIG. 27. Comparison of FGF1, FGF2, FGF9, and FGF10 effects. Single subcutaneous injection of FGFs (0.5 mg/kg) in ob/ob mice.\nAs human recombinant FGF-1 is already being used in the clinic, the present methods of using it to treat metabolic disorders offer a straightforward regulatory path to treatment.\nAs explained above, the FGF family of factors bind to members of the FGFR family of receptors with different specificities. FGF-1 binds preferentially to FGFR1 and FGFR4, and can be internalized into a cell expressing these receptors. To determine if other FGF proteins have similar metabolic effects as FGF-1, we tested blood glucose in ob/ob mice treated with FGF-2, FGF-9, and FGF-10 (0.5 mg/kg s.c.). This combination of FGF proteins binds to the spectrum of FGFRs."}, "ob/ob male mice": {"system": "ob/ob male mice", "assay": "Daily FGF-1 or rosiglitazone treatment of ob/ob mice: fed blood glucose and body composition (Example 5)", "type": "in vivo, mouse", "conditions": "fed ob/ob male mice, one hour after treatment; FGF-1 0.5 mg/kg/day s.c., TZD 5 mg/kg/day p.o.; about 400 mg/dl before treatment", "description": "FIGS. 7A-7H. FGF-1 injection studies in rodents. (A) Fed blood glucose in ob/ob male mice treated with FGF-1 (0.5 mg/kg, s.c.), rosiglitazone (TZD, 5 mg/kg, p.o.), or vehicle. FGF-1 was administered once daily, and blood glucose levels were measured at day 0 (basal levels before FGF-1 injection), day 3, and day 6, 1 hour after injection. The values (±SE) shown are the average of the measurements of 5 animals in a group; (B) Sustained glucose lowering effects of FGF-1: Fed blood glucose levels in ob/ob mice at indicated time points after the last FGF-1 injection at day 6. (C-H): 72 hrs after the sixth dose, another dose was given and effects of FGF-1 and TZD on (C) body weight, (D) total body fat, (E) lean weight, (F) weight gain, (G) liver weight, and (H) heart weight were determined.\nIn Example 5, ob/ob male mice (8 wk old) were randomized into three groups and treated with daily subcutaneous (s.c.) injections of recombinant mouse FGF-1 (0.5 mg/kg in PBS), oral rosiglitazone (TZD, 5 mg/kg in 0.5% carboxymethyl cellulose), or vehicle. Blood glucose levels were measure in fed animals one hour after treatment. Total body composition analysis was performed using an EchoMRI-100™ (Echo Medical Systems, LLC).\nEight-week-old male ob/ob mice were treated with recombinant mouse FGF-1 (0.5 mg/kg/day, s.c. in 250 μl), rosiglitazone (TZD, 5 mg/kg/day, p.o. in 300 μl), or vehicle control (s.c. vehicle control 0.9% NaCl, 250 μl/mouse; p.o. vehicle control 0.5% CMC, 300 μl/mouse). Blood glucose was measured one hour after treatment at day 3 and day 6 using a standard protocol. (FIG. 7A).\nBefore treatment, all groups were severely hyperglycemic, as indicated by blood glucose levels of about 400 mg/dl. […] At 6 days, blood glucose levels were even further reduced to around 130-140 mg/dl for both groups. After the sixth dose, blood glucose levels were monitored for another 72 hrs. During this period, both FGF-1- and TZD-treated cohorts maintained normoglycemic levels (<140 mg/dl) for at least 48 hrs (FIG. 7B). At 72 hrs after the sixth dose, a final dose was given, and 12 hrs later, a total body composition analysis was performed by MRI followed by necropsy."}}}
{"molecule": "human FGF1: human recombinant FGF-1; human protein is 155 amino acids, SwissProt P05230.1", "values": [{"measurement": "blood glucose in ob/ob mice after a single s.c. injection", "setting": "ob/ob mice", "result": "normalizes blood glucose"}, {"measurement": "blood glucose in ob/ob mice after a single s.c. injection", "setting": "ob/ob mice; listed as hrFGF-1", "result": "can effectively reduce glucose levels"}]}
{"molecule": "FGF2: other FGF protein tested for comparison with FGF-1 [reference compound]", "values": [{"measurement": "blood glucose in ob/ob mice after a single s.c. injection", "setting": "ob/ob mice", "result": "Only FGF1 has glucose normalizing effects"}]}
{"molecule": "CN(CCOc1ccc(CC2SC(=O)NC2=O)cc1)c1ccccn1", "note": "(centres unmarked) [rosiglitazone, reference compound]", "values": [{"measurement": "blood glucose levels at day three", "setting": "ob/ob male mice", "result": "about 200 mg/dl"}]}
{"molecule": "B1", "values": [{"measurement": "blood glucose in ob/ob mice after a single s.c. injection", "setting": "ob/ob mice", "result": "Only FGF1 has glucose normalizing effects"}]}
